Assay results taken from patent publication US20260193293A1, “PEPTIDES CAPABLE OF INHIBITING PROTEIN-PROTEIN INTERACTIONS AT GABAB1A SUBUNIT AND USES THEREOF” (UNIVERSITY OF COPENHAGEN, priority 2022, published 2026).
Like-named read-outs stand apart in the source and are kept apart here. Non-standard residues stand in square brackets, D forms with d. Residues, ends and D or L forms follow the SMILES beside them. 2Nal = N[C@@H](Cc1ccc2ccccc2c1)C(=O)O

Legend:
[1] = biological target: Sushi domains (SD1/2) protein; assay: Fluorescence polarization (FP) competition assay with AJAP-1probe, calculated Ki; type: binding
Procedure, shortened: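 Ki values were derived from IC50s (sigmoidal fits, ≥ triplicate), with probe Kd obtained by saturation titration of SD1/2. Peptides displaced a 25 nM TAMRA-labelled probe; polarization read at 530/580 nm in 1% BSA-containing PBS, pH 7.4, room temperature.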

GB1a subunit = biological target: T1, GB1a subunit (Mus musculus, UniProt Q9WV18); assay: Pull-down from mouse brain membrane fraction, immunoblotting; type: binding; conditions: immobilized peptides, whole-brain lysate
T1 construct: using the homogenized membrane fraction of wild type mouse brains; from tissue; host or cells: adult mouse brain, solubilized membrane-enriched fraction
T1 sequence (Q9WV18 20-960): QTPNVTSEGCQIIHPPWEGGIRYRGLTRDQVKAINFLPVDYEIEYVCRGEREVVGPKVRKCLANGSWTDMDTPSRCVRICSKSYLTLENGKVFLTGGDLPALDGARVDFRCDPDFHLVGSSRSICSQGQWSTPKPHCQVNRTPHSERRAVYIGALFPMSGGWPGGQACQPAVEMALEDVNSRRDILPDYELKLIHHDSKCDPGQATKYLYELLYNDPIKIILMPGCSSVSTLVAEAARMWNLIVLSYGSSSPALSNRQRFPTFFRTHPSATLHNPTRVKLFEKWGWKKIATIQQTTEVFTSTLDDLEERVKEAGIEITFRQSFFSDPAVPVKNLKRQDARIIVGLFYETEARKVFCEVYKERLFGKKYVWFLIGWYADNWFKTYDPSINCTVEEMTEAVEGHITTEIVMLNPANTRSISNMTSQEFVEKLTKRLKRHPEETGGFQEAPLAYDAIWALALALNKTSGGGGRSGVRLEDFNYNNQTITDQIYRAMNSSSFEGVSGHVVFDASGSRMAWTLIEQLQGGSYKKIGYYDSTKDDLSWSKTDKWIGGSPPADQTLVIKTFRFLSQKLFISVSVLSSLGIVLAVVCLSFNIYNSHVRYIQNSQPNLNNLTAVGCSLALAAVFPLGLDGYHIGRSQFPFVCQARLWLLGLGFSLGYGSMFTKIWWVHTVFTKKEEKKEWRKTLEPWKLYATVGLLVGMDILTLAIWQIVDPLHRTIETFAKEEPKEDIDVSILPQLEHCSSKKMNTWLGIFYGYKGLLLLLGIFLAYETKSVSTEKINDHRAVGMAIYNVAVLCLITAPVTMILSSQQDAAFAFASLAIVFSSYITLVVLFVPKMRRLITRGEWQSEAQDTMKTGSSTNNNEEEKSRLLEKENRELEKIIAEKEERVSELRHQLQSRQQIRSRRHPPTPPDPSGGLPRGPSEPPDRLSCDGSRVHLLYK
Experimental: Covalent immobilization of peptides. Peptides AJAP-1WT, 17 and 20 comprising a C-terminal Cys and a PEG2 linker, were loaded covalently to Dynabeads M-270 Epoxy beads (Thermo Fischer Scientific) according to the protocol of the manufacturer. 25 μL DMSO stocks of peptides (10 mM) were diluted 15 times into 350 μL coupling buffer (100 mM PBS buffer containing 2 M […] and 10 mM TCEP, PH=7.4) and agitated overnight at 37° C. with Dynabeads M-270 Epoxy beads (5 mg, ~3.3×10^8 beads), which had been washed and equilibrated with coupling buffer before. After removing excess peptides, the Dynabeads M-270 Epoxy beads were washed three times and equilibrated with 100 mM PBS buffer, pH=7.4 and stored at 4° C.
Preparation of whole-brain lysates. Dissected adult mouse brains were placed in ice-cold homogenization buffer (320 mM sucrose, 4 mM HEPES, PH 7.5, 1 mM EDTA, 1 mM EGTA, supplemented with complete EDTA-free protease inhibitor mixture (Roche), 1 mL per 100 mg of brain) and homogenized with a glass-Teflon homogenizer (40 passes) on ice. The homogenized material was cleared by centrifugation at 500×g (4° C., 15 min). […]

[2] = biological target: T2, GB1a/2 receptors in presence of AJAP-1 in trans (Homo sapiens, UniProt Q9UBS5); assay: SRE-Luciferase accumulation assay; type: cell-based; conditions: 10 μM peptide; for basal activity of GB1a/2Rs: in presence of AJAP-1 in trans
T2 construct: Flag; expressed in transfected cells; host or cells: HEK293T cells stably expressing chimeric Gαq/i
T2 sequence (Q9UBS5 15-961 limits assumed): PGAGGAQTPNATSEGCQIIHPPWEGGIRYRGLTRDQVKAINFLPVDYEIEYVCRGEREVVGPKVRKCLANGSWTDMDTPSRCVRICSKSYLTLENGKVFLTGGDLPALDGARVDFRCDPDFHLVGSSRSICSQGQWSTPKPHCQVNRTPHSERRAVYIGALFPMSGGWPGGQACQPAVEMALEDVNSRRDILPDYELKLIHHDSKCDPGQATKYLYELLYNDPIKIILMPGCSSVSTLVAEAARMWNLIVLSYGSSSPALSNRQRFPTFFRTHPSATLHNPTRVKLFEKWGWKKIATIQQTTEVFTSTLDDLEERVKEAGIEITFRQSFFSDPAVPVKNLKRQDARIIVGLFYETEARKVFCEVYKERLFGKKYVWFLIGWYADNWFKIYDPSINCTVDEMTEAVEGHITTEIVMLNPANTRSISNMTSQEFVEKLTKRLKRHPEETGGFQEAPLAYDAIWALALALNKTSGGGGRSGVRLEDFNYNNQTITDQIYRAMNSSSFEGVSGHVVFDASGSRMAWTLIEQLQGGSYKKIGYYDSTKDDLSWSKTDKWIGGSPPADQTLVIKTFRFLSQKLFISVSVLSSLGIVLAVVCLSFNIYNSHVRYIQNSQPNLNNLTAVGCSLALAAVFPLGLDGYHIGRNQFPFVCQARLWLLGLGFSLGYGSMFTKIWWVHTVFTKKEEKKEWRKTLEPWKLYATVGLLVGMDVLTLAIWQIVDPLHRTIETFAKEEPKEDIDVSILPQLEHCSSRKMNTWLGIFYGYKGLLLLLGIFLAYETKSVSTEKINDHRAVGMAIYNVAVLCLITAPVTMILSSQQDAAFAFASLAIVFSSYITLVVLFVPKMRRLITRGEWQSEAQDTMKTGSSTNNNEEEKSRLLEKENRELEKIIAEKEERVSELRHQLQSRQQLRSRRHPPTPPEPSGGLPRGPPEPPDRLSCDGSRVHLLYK
T2 sequence (O75899 42-941 partner): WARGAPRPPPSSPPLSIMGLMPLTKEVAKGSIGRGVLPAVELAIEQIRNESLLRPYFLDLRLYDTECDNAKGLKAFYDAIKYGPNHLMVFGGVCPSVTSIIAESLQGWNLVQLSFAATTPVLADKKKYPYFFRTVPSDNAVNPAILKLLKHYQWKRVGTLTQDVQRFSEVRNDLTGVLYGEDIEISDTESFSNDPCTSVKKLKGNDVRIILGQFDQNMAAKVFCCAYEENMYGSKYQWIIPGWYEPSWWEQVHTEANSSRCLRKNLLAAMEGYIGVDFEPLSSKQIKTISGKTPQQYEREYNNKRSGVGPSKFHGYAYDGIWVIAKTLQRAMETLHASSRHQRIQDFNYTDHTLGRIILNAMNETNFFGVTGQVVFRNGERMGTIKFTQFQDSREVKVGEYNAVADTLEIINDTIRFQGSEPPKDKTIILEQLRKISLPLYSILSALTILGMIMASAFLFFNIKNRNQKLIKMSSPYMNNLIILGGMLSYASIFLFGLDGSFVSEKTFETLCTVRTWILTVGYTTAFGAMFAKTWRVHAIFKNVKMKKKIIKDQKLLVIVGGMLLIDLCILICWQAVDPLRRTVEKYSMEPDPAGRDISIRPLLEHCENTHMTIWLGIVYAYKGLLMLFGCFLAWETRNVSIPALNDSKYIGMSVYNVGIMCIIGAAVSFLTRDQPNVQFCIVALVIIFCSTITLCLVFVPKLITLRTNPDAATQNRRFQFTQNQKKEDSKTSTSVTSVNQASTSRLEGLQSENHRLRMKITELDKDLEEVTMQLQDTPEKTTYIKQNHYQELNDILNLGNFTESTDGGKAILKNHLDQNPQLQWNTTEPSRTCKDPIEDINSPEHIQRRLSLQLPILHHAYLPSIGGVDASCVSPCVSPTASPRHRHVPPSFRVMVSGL
Excerpt: (§1) To elucidate whether our developed peptides AJAP-1WT, 16 and 20 could interact and disrupt the trans-interaction between AJAP-1 and GB1a/2Rs, we used an established accumulation assay based on coupling GB1a/2Rs to phospholipase C (PLC) via chimeric Gαqi (Conklin et al. 1993). PLC activity is then monitored with a serum responsive element-luciferase (SRE-Luciferase) reporter amplifying the GB1a/2Rs response (Yoo et al. 2017) (FIG. 5).
(§2) HEK293T cells stably expressing Gαq/i were transiently transfected with Flag-GB1a, Flag-GB2 and SRE-FLuc with or without AJAP-1. In order to ensure GB1a/2 binding of AJAP-1 in trans, a pool of HEK293T-Gαq/i cells expressing AJAP-1 was mixed with HEK293-Gαq/i cells expressing Flag-GB1a, Flag-GB2 and SRE-FLuc. Transfected cells were distributed into 96-well microplates (Greiner Bio-One) at a density of 80,000 cells/well. After 24 h, the culture medium was replaced with Opti-MEM™-GlutaMAX™ Peptides were incubated in Opti-MEM™-GlutaMAX™ for 10 minutes. In presence of peptide, GB1a/2 receptors were activated with various concentrations of GABA for 6 h. FLuc activity in lysed cells was measured using the Luciferase® Assay Kit (Promega) and a Spark® microplate reader. Luminescence signals were adjusted by subtracting the luminescence obtained when expressing SRE-FLuc fusion proteins alone.

GB1a/2 receptors = biological target: T3, GB1a/2 receptors (Homo sapiens, UniProt Q9UBS5); assay: SRE-Luciferase accumulation assay; type: cell-based; conditions: in the absence of AJAP-1
T3 construct: Flag; expressed in transfected cells; host or cells: HEK293T cells stably expressing chimeric Gαq/i
T3 sequence (Q9UBS5 15-961 limits assumed): as the sequence (Q9UBS5 15-961 limits assumed) above
T3 sequence (O75899 42-941 partner): as the sequence (O75899 42-941 partner) above
Excerpt: as §1, §2

[3] = human, plasma
Experimental: For time-course assay, 360 μL human plasma was pre-warmed up at 37° C. for 15 min and then spiked with 40 μL of tested peptides (1 mM in 1×PBS). […] Subsequently, 100 μL acetonitrile was added into and then samples were incubated overnight at −20° C. After that, all samples were centrifuged at 13,400 rpm for 10 min and the supernatant was filtered and then analyzed by LC-MS and UPLC (Waters). The area under the curve (AUC) was determined and normalized to the value of the first time point. The half-life (T1/2) was obtained by fitting the data to the one-phase decay equation in GraphPad Prism 9 and expressed as the mean of three individual experiments. For end-point assay, 108 μL human plasma was pre-warmed up at 37° C. for 15 min and then spiked with 12 μL of tested peptides (1 mM in 1×PBS).

[4] = system: HeLa cell line stably expressing HaloTag-GFP fusion protein; assay: Chloroalkane penetration assay (CAPA); type: in vitro ADME; conditions: cell membrane permeability, CA-tagged peptides, mean ± SEM, n ≥ 3
Experimental: The HeLa cell line used for CAPA assay was generated by Chenoweth and co-workers and provided by Kritzer and co-workers. The cells stably express a HaloTag-GFP fusion protein anchored through a mitochondria targeting peptide exposed to the cytosol. For CAPA, Hela cells were seeded using DMEM supplemented with FBS in a 96-well plate one day before the experiment at a density of 4×10^4 cells/well. Just before the assay, the growth media was aspirated off and replaced with Opti-MEM assay media (100 μL/well). DMSO stocks of peptides (10 mM) were diluted in Opti-MEM to prepare serial dilutions of peptides in a separate 96-well PCR plate ensuring the final concentration of DMSO was kept consistent and below 1%. Subsequently, 25 μL of peptide solution was added into each well and the plate was incubated for 4 h at 37° C. with 5% CO2. After aspirating the assay media off, cells were washed with fresh Opti-MEM (80 μL/well) for 15 min at rt. Following removal of the washing media, cells were incubated with 5 μM CA-TAMRA in Opti-MEM (50 μL/well) for 15 min. Non CATAMRA control wells were incubated with Opti-MEM alone (50 μL/well). […] After aspiration, cells were trypsinized using clear Trypsin (20 μL/well, 10 min at 37° C.), resuspended in PBS containing 2% FBS ([…]), and analyzed using a benchtop flow cytometer (Guava EasyCyte, EMD Millipore).

[5] = CPP tagged peptides overview, SD1/2 binding affinity, mean ± SEM, n ≥ 3, read-out: Ki

CC[C@H](C)[C@H](NC(=O)[C@H](CC(=O)O)NC(=O)[C@H](CC(=O)O)NC(=O)[C@H](Cc1ccc(O)cc1)NC(=O)[C@H](CC(=O)O)NC(=O)[C@H](CC(=O)O)NC(=O)[C@H](CO)NC(=O)[C@H](CC(=O)O)NC(=O)[C@H](CCC(=O)O)NC(=O)[C@H](Cc1ccc2ccccc2c1)NC(C)=O)C(=O)N[C@@H](CC(=O)O)C(=O)N[C@@H](CC(=O)O)C(=O)N[C@@H](CC(=O)O)C(=O)N[C@@H](Cc1c[nH]c2ccccc12)C(N)=O [Scr-20, reference compound] (Ac-[2Nal]EDSDDYDDIDDDW-NH2)
Ki ([1]; Table 16, ncAAs incorporated peptides, read-out: Ki (nM) mean ± SEM): 31200 ± 989 nM | pull-down of native GB1a (GB1a subunit): did not interact with the GB1a subunit | basal activity of GB1a/2Rs [2]: significant decreased basal activity | Emax values of GABA-activated GB1a/2Rs (GB1a/2 receptors): did not affect the Emax values

CC[C@H](C)[C@H](NC(=O)[C@H](Cc1ccccc1)NC(=O)[C@H](CCC(=O)O)NC(=O)[C@@H](NC(=O)[C@H](CCC(=O)O)NC(C)=O)[C@@H](C)O)C(=O)N[C@@H](C)C(=O)N[C@@H](Cc1c[nH]c2ccccc12)C(=O)NCC(=O)N1CCC[C@H]1C(=O)N[C@H](C(=O)NCC(=O)N[C@@H](CC(=O)O)C(=O)N[C@@H](CCC(=O)O)C(=O)N[C@@H](CC(=O)O)C(N)=O)[C@@H](C)O [AJAP-1WT, Ac-ETEFIAWGPTGDED-NH2] (Ac-ETEFIAWGPTGDED-NH2)
half-life [3]: > 48 h | Ki ([1]; purified peptides, read-out: Ki): 31 ± 1 nM | pull-down of native GB1a (GB1a subunit): ability to bind and enrich full-length GB1a subunit | basal activity of GB1a/2Rs [2]: elevated basal activity | Emax values of GABA-activated GB1a/2Rs (GB1a/2 receptors): did not affect the Emax values

CC[C@H](C)[C@H](NC(=O)[C@H](Cc1c[nH]c2ccccc12)NC(=O)[C@H](CC(=O)O)NC(=O)[C@H](CC(=O)O)NC(=O)[C@H](CC(=O)O)NC(=O)[C@H](CCC(=O)O)NC(C)=O)C(=O)N[C@@H](CC(=O)O)C(=O)N[C@@H](Cc1c[nH]c2ccccc12)C(=O)N[C@@H](Cc1ccc(O)cc1)C(=O)N[C@@H](CC(=O)O)C(=O)N[C@@H](CO)C(=O)N[C@@H](CC(=O)O)C(=O)N[C@@H](CC(=O)O)C(=O)N[C@@H](CC(=O)O)C(N)=O [Peptide 16] (Ac-EDDDWIDWYDSDDD-NH2)
half-life [3]: > 48 h | Ki [1, 5]: 3.2 ± 0.2 nM | Ki ([1]; Table 1, affinity maturation, mean ± SEM, n ≥ 3, read-out: Ki): 3.2 ± 0.2 nM | Ki ([1]; Table 13, peptides for affinity maturation, read-out: Ki (nM) mean ± SEM): 3.2 ± 0.2 nM | reduction of negative allosteric modulation effects of AJAP-1 at GB1a/2Rs in trans [2]: to a greater extent than AJAP-1WT peptide | basal activity of GB1a/2Rs [2]: elevated basal activity | Emax values of GABA-activated GB1a/2Rs (GB1a/2 receptors): did not affect the Emax values

DDDWIDWYDSDDDYGRKKRRQRRR [Peptide 16-Tat]
Ki [1, 5]: 71 ± 1 nM | Ki ([1]; Table 14, CPPs tagged peptides, read-out: Ki (nM) mean ± SEM): 70.5 ± 0.3 nM | CP50 [4]: 19 ± 0.4 µM
